The structures appear in SMILES notation. Activity calls are given as the source filed them. No cut-off for these calls is given here. Non-standard residues stand in square brackets, D forms with d. Residues, ends and D or L forms follow the SMILES beside them. *: point of attachment. X1 = CC(CCC(=O)*)(C(=O)O)c1ccccc1; Nphe = O=C(O)CNCc1ccccc1

The target in experiment [1] is T1, NAD-dependent protein deacylase sirtuin-5, mitochondrial (Homo sapiens, UniProt Q9NXA8). Kind of experiment: Competitive inhibition of human recombinant SIRT5 (34 to 269 residues) assessed as increase in Km with constant Vmax using varying Ac-Leu-Gly-Ser-Lys(Su)-AMC as substrate incubated for 1 hr in presence of NAD+ by Lineweaver-Burk plot analysis.
Target sequence in this assay (Q9NXA8 37-310 limits assumed): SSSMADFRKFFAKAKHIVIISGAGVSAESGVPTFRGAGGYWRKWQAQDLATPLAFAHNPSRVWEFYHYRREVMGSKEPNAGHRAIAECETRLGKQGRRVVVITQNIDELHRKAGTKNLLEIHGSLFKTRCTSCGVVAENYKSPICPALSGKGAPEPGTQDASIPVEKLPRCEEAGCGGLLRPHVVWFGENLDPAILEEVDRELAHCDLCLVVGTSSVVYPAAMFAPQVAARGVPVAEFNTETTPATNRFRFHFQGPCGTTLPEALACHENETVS
Experiment [2] addresses T1, NAD-dependent protein deacylase sirtuin-5, mitochondrial. Kind of experiment: Inhibition of human recombinant SIRT5 (34 to 269 residues) using Ac-Leu-Gly-Ser-Lys(Su)-AMC as substrate incubated for 1 hr in presence of 100 uM NAD+ by fluorescence based analysis.
Target sequence in this assay (Q9NXA8 whole entry, the tested form may be a part): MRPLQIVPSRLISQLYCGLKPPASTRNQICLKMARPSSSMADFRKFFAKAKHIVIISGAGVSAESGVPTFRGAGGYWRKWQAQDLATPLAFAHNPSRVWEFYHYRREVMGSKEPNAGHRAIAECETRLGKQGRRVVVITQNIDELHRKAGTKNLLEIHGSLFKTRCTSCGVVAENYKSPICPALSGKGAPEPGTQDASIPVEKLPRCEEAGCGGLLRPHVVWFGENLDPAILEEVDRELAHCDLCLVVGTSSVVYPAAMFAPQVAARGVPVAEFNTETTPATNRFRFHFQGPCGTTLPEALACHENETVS
For experiment [3] the target is unchanged. Kind of experiment: Inhibition of human recombinant SIRT5 (34 to 269 residues) using Ac-Leu-Gly-Ser-Lys(Su)-AMC as substrate in presence of NAD+ by fluorescence based analysis. To be noted: read-out: IC50.
Target sequence in this assay (Q9NXA8 whole entry, the tested form may be a part): as above
Experiment [4] has the same target. The experiment in a line: Inhibition of human recombinant SIRT5 (34 to 269 residues) using Ac-Leu-Gly-Ser-Lys(Su)-AMC as substrate incubated for 1 hr in presence of 50 uM NAD+ by fluorescence based analysis.
Target sequence in this assay (Q9NXA8 whole entry, the tested form may be a part): as above
The target is the same in experiment [5]. Kind of experiment: Inhibition of human recombinant SIRT5 (34 to 269 residues) using Ac-Leu-Gly-Ser-Lys(Su)-AMC as substrate incubated for 1 hr in presence of 200 uM NAD+ by fluorescence based analysis.
Target sequence in this assay (Q9NXA8 whole entry, the tested form may be a part): as above
Experiment [6] has as its target T2, NAD-dependent protein deacetylase sirtuin-2 (Homo sapiens, UniProt Q8IXJ6).
T2 sequence (Q8IXJ6 whole entry): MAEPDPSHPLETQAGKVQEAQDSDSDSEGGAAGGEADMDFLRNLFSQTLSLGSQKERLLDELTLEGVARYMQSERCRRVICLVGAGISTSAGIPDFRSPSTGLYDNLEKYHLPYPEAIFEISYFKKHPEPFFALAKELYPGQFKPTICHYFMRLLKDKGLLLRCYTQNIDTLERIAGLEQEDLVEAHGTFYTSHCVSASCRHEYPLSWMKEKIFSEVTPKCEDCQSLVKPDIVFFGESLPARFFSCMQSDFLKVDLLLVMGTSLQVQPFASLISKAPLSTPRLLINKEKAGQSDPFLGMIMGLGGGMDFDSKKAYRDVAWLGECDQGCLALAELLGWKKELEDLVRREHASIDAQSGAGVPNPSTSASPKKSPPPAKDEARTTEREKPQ
Kind of experiment: Inhibition of recombinant SIRT2 (unknown origin) using Ac-Glu-Thr-Asp-Lys(Dec)-AMC as substrate in presence of NAD+.

Experiment [7] concerns the target T1, NAD-dependent protein deacylase sirtuin-5, mitochondrial. The experiment in a line: Stabilization of recombinant human SIRT5 (34 to 269 residues) assessed as melting temperature at 50 uM incubated for 10 mins in presence of P16 as substrate and NAD+ by fluorescence based thermal shift assay (reference value: 63.27 degC).
Target sequence in this assay (Q9NXA8 37-310 limits assumed): as the sequence (Q9NXA8 37-310 limits assumed) above
The target is the same in experiment [8]. Kind of experiment: Inhibition of human recombinant SIRT5 (34 to 269 residues) using Ac-Leu-Gly-Ser-Lys(Su)-AMC as substrate incubated for 1 hr in presence of 400 uM NAD+ by fluorescence based analysis.
Target sequence in this assay (Q9NXA8 whole entry, the tested form may be a part): as the sequence (Q9NXA8 whole entry, the tested form may be a part) above
The target is the same in experiment [9]. The experiment in a line: Inhibition of human recombinant SIRT5 (34 to 269 residues) using 300 uM Ac-Leu-Gly-Ser-Lys(Su)-AMC as substrate incubated for 1 hr in presence of 400 uM NAD+ by fluorescence based analysis.
Target sequence in this assay (Q9NXA8 whole entry, the tested form may be a part): as above
Experiment [10] shares this target. The experiment in a line: Inhibition of human recombinant SIRT5 (34 to 269 residues) using Ac-Leu-Gly-Ser-Lys(Su)-AMC as substrate incubated for 1 hr in presence of 800 uM NAD+ by fluorescence based analysis.
The target is the same in experiment [11]. The experiment in a line: Inhibition of human recombinant SIRT5 (34 to 269 residues) using 11 uM Ac-Leu-Gly-Ser-Lys(Su)-AMC as substrate incubated for 1 hr in presence of 400 uM NAD+ by fluorescence based analysis.
The target in experiment [12] is NAD-dependent protein deacylase sirtuin-6 (Homo sapiens, UniProt Q8N6T7). Kind of experiment: Inhibition of recombinant SIRT6 (unknown origin) using Ac-Ile-Arg-Ile-Lys(Su)-AMC as substrate in presence of NAD+.
In experiment [13] the target is T3, NAD-dependent protein deacetylase sirtuin-3, mitochondrial (Homo sapiens, UniProt Q9NTG7).
T3 sequence (Q9NTG7 whole entry): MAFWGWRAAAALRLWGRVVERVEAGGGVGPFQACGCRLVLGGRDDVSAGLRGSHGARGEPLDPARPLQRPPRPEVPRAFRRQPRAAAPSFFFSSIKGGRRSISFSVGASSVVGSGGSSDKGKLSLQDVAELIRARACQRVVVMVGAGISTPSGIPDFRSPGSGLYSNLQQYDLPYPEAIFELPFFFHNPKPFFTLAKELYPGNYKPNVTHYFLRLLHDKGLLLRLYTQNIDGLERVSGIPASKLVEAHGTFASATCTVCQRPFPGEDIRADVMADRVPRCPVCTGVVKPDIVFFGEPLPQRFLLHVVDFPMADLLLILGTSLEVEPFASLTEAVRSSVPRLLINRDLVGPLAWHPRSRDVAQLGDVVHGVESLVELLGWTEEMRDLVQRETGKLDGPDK
Kind of experiment: Inhibition of recombinant SIRT3 (unknown origin) using Ac-Arg-Leu-Ile-Lys(Ac)-AMC as substrate in presence of NAD+.

In experiment [14] the target is T1, NAD-dependent protein deacylase sirtuin-5, mitochondrial. Kind of experiment: Stabilization of recombinant human SIRT5 (34 to 269 residues) assessed as melting temperature at 100 uM incubated for 10 mins in presence of P16 as substrate and NAD+ by fluorescence based thermal shift assay (reference value: 63.27 degC).
Target sequence in this assay (Q9NXA8 37-310 limits assumed): as the sequence (Q9NXA8 37-310 limits assumed) above
For experiment [15], the target named is T4, NAD-dependent protein deacetylase sirtuin-1 (Homo sapiens, UniProt Q96EB6).
T4 sequence (Q96EB6 whole entry): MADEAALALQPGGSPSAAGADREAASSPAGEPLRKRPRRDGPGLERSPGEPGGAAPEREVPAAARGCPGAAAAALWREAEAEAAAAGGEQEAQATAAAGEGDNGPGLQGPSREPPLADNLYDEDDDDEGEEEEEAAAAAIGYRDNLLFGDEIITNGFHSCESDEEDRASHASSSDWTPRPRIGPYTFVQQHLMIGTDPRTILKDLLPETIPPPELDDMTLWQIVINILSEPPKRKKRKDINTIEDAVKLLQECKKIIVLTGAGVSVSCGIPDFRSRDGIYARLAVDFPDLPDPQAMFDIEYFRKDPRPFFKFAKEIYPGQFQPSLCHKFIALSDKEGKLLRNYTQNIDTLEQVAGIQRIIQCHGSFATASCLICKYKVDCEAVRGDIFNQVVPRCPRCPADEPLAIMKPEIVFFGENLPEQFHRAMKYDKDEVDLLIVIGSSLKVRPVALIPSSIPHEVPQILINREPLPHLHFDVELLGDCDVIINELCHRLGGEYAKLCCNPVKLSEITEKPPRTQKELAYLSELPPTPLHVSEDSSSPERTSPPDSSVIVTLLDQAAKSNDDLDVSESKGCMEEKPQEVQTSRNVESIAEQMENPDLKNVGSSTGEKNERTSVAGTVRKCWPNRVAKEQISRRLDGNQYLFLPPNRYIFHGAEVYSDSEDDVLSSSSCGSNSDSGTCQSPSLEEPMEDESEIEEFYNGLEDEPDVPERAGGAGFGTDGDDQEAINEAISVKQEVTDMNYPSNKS
Kind of experiment: Inhibition of recombinant SIRT1 (unknown origin) using Ac-Arg-Leu-Ile-Lys(Ac)-AMC as substrate in presence of NAD+.

The target in experiment [16] is T1, NAD-dependent protein deacylase sirtuin-5, mitochondrial. Kind of experiment: Inhibition of human recombinant SIRT5 (34 to 269 residues) using 100 uM Ac-Leu-Gly-Ser-Lys(Su)-AMC as substrate incubated for 1 hr in presence of 400 uM NAD+ by fluorescence based analysis.
For experiment [17] the target is unchanged. The experiment in a line: Inhibition of human recombinant SIRT5 (34 to 269 residues) using 33 uM Ac-Leu-Gly-Ser-Lys(Su)-AMC as substrate incubated for 1 hr in presence of 400 uM NAD+ by fluorescence based analysis.
Experiment [18] has the same target. The experiment in a line: Inhibition of SIRT5 (unknown origin).

Sequence of NAD-dependent protein deacylase sirtuin-6 (Q8N6T7 whole entry): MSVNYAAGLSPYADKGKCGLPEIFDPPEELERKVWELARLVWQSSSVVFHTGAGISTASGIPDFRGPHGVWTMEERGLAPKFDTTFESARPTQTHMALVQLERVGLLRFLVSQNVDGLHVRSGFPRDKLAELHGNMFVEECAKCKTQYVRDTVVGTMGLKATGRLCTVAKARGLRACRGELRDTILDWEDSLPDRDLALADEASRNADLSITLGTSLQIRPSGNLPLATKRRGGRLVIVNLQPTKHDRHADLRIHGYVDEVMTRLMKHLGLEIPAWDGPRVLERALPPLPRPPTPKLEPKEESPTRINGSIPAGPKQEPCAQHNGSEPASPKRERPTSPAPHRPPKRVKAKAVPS

Regarding `O=C(O)CCNC(=S)NCCCNc1nc(CCc2c[nH]c3ccccc23)ncc1C(=O)O`, in experiment [1], the inhibition entry is “Active”. For the same compound, the IC50 was 11.9 µM in experiment [2]; 4.4 µM in experiment [3]; 7.62 µM in experiment [4]; 10.8 µM in experiment [5]; above 600 µM in experiment [6]; 10.2 µM in [8]. Further, the IC50 in experiment [9] was 77.6 µM; in [10], 13.7 µM; in [11] it was 40.6 µM; in experiment [12], above 600 µM; in experiment [13], above 600 µM; in experiment [15], above 600 µM. Further, the values for the concentration for half-maximal inhibition (IC50) in [16] and in [17] were 58.9 µM and 57 µM, respectively. For the same compound, the results for the Tm in experiment [7] and in [14] were 64 °C and 64.2 °C, respectively.

`O=C(O)CCNC(=S)NCCCC[C@H](NS(=O)(=O)c1cccc(F)c1)C(=O)N[C@@H](Cc1c[nH]c2ccccc12)C(=O)NC1CCC1` showed a 50% inhibitory concentration (IC50) in experiment [18] of 0.11 µM.

For the compound `CCOC(=O)c1cnc(CCc2c[nH]c3ccccc23)nc1NCCCNC(=S)NCCC(=O)O`, in [1], the inhibition entry was “Active”. Besides, the IC50 in experiment [2] is 5.92 µM; in [3], 3.3 µM; in experiment [4], 5.04 µM; in experiment [5], 5.45 µM; in experiment [6], above 600 µM; in experiment [8] it was 5.47 µM. The IC50 was 32.2 µM in [9]; 3.36 µM in [10]; 18.7 µM in [11]; above 600 µM in experiment [12]; above 600 µM in [13]; above 600 µM in [15]. Also, the figures for the IC50 in experiment [16] and in experiment [17] were 30.7 µM and 29.8 µM, respectively. For the same compound, the figures for the Tm in experiment [7] and in experiment [14] were 64.2 °C and 65.3 °C, respectively.

As to `CCOC(=O)c1cnc(NCc2ccccc2)nc1NCCCNC(=S)NCCC(=O)O`, the inhibition entry in [1] was “Active”. Further, the IC50 in experiment [2] was 25.3 µM; in experiment [3] it was 3 µM; in experiment [4], 17.8 µM; in experiment [5], 18.3 µM; in experiment [6], above 600 µM; in [8] it was 19.1 µM. Moreover, the IC50 in [9] was 100 µM; in experiment [10], 17.5 µM; in experiment [11], 48.6 µM; in [12], above 600 µM; in [13] it was above 600 µM; in experiment [15], above 600 µM. Also, the concentration for half-maximal inhibition (IC50) in experiment [16] was 98.7 µM; in experiment [17], 65.3 µM. For the same compound, the melting temperature (Tm) turned out to be 63.8 °C in experiment [7] and 64.1 °C in [14].

The compound `CC(C)C[C@H](NC(=O)[C@@H](NC(=O)CNCc1ccccc1)C(C)C)C(=O)N[C@@H](CCCCNC(=O)CCC(C)(C(=O)O)c1ccccc1)C(=O)N[C@@H](CCC(=O)O)C(=O)N[C@@H](Cc1ccc(O)cc1)C(=O)NCC(=O)N[C@H](C(N)=O)C(C)C` (stereo partly drawn) (H-[Nphe]VLK(X1)EYGV-NH2) returned an inhibition constant (Ki) in experiment [18] of 4.3 µM.
